In ChEMBL document CHEMBL1150981, “Synthesis of new maleimide derivatives of daunorubicin and biological activity of acid labile transferrin conjugates” (Bioorg Med Chem Lett, 1997):
Calls of active or inactive are those of the source. The rule behind the calls is not given here.

How the values were obtained:
LXFL 529/11 [1] = assay: Tested for its inhibitory activity against xenograft (LXFL 529/11, lung, large cell) using a clonogenic assay; type: functional, Homo sapiens
[2] = Tested for the half life period at pH 5.0; type: ADME
MEXF989 [3] = assay: Tested for its inhibitory activity against human melanoma cells (MEFX 989) using a clonogenic assay at 0.01-1.0 uM; type: functional; settings: MEXF 989
MEXF989 [4] = assay: Tested for its inhibitory activity against human melanoma cells ([…]) using a clonogenic assay at 0.01-1.0 uM; […]; type: functional, cell-based
LXFL 529/11 [5] = assay: Tested for its inhibitory activity against xenograft (LXFL 529/11, lung, large cell) using a clonogenic assay at 0.01-1.0 uM; No activity; type: functional, cell-based; settings: Homo sapiens

SMILES	IC90 (LXFL 529/11 [1])	half-life [2]	IC70 (MEXF989 [3])	Activity (MEXF989 [4])	Activity (LXFL 529/11 [5])
COc1cccc2c1C(=O)c1c(O)c3c(c(O)c1C2=O)C[C@@](O)(/C(C)=N/NC(=O)c1cccc(N2C(=O)C=CC2=O)c1)C[C@@H]3OC1CC(N)C(O)C(C)O1 (stereo not given in full)	<10 nM	20 h	390 nM		
COc1cccc2c1C(=O)c1c(O)c3c(c(O)c1C2=O)C[C@@](O)(/C(C)=N/NC(=O)c1ccc(CN2C(=O)C=CC2=O)cc1)C[C@@H]3OC1CC(N)C(O)C(C)O1 (stereo not given in full)	<10 nM	30 h	22 nM		
COc1cccc2c1C(=O)c1c(O)c3c(c(O)c1C2=O)C[C@@](O)(C(C)=O)C[C@@H]3O[C@H]1C[C@H](N)[C@H](O)[C@H](C)O1 [DAUNORUBICIN]	30 nM		260 nM		
COc1cccc2c1C(=O)c1c(O)c3c(c(O)c1C2=O)C[C@@](O)(C(C)=O)C[C@@H]3OC1CC(NC(=O)c2cccc(N3C(=O)C=CC3=O)c2)C(O)C(C)O1 (stereo not given in full)				inactive	inactive
